In data set [1] the test system is MiaPaCa-2 cells. In words: Cell viability (CellTiter-Glo) in MiaPaCa-2 pancreatic cancer cells after transfection. The format is cell-based, human. Conditions: Homo sapiens, MIA PaCa-2. As to the method:
(§1) MIA PaCa-2, […], LS180, HT1376, HT29, H358, H1299, OVCAR-3, HTB-9 and Panc 10.05 cells were obtained from ATCC (Rockville, MD). MiaPaCa cells were cultured in DMEM medium supplemented with 10% FBS. H358, H1299, HTB-9, N87 and Panc 10.05 cells were cultured in DMEM/10% FBS; LS180 and HT1376 in EMEM/10% FBS; HT29 cells in McCoy5A/10% FBS; OVCAR-3 cells were incubated in RPMI/20% FBS. All cells were maintained at 37 degrees C. in an atmosphere containing 5% CO^2.
(§2) The day before transfection, cells were seeded in a 384-well plate at an optimal density of between 300 and 800 cells/well. The next day, ten 3-fold serial dilutions of single, modified-backbone siRNAs or PGN6/PGN7 siRNA and Gemcitabine (GEM) mixed with siRNAs: Wee1 #7, KRAS #1, MCL1 #3 or DM2-P47 siRNAs at 1:1 ratio were prepared and combined with diluted Lipofectamine RNAiMAX (Life Technologies, Carlsbad, CA). Within 20 minutes, 10 μl of the transfection mixtures were added to the cells in a 40 μL medium. The final concentrations of siRNAs or Gemcitabine in the wells ranged from 100 nM to 0.002 nM.
(§3) Ninety-six hours following the addition of GEM or transfection mixtures, the number of viable cells was determined with CellTiter-Glo®-2.0 reagent (Promega, Madison, WI) by measuring luminescent signal using a Cytation 5 plate reader (BioTek Inc, Winooski, VT). The treatment group (n=4) mean (±SD) was compared to those of non-treated controls and were reported as relative cell viability.
In general terms: Cellular ATP, detected with luciferase, serves as a proxy for viable cell number.

The test system of data set [2] is MDA-MB231 cells. In words: Cell viability in triple negative breast cancer cell line MDA-MB231. The format is cell-based. Conditions: MDA-MB231, 400 cells per well; FIG. 13(a). As to the method: as §1
(§4) The day before transfection, cells were seeded in a 384-well plate at an optimal density of between 300 and 800 cells/well. […]
(§5) Ninety-six hours following the addition of GEM or transfection mixtures, the number of viable cells was determined with CellTiter-Glo®-2.0 reagent (Promega, Madison, WI) by measuring luminescent signal using a Cytation 5 plate reader (BioTek Inc, Winooski, VT). […]
(§6) Using the same or similar experimental condition as are described above in Example 1, the effects of (i) PGN7 (SEQ. ID No. 9-10) plus a non-signaling oligonucleotide (“NS”), (ii) BCLxL #5 (SEQ. ID No. 14)+NS, and (iii) PGN7 and BCLxL #5 in combination were evaluated and are shown in triple negative breast cancer (MDA-MB231) and ovarian cancer (OVCAR3) cell lines in FIGS. 13 (a)-(b). […]

Data set [3] has as its system OVCAR3 cells. In words: Cell viability in ovarian cancer cell line OVCAR3. The format is cell-based. As to conditions: OVCAR3, 800 cells per well; FIG. 13(b). As to the method:
as §1, §4, §5, §6

Data set [4] deals with MIA PaCa-2 human pancreatic cancer xenograft. In words: PGN6 efficacy on pancreatic tumor growth in NOD/SCID mice inoculated with MIA PaCa-2. The format is in vivo, mouse. From the text: Twenty, 6- to 9-week old NOD/SCID female mice were purchased from the Jackson Laboratory. Each mouse was tagged for identification at the beginning of the study. Up to 5 mice were housed in a single cage with standard corn cob bedding for a minimum of three days for stabilization; bedding was changed every two weeks. Fluorescent lighting was provided on a 12-hour cycle; temperature was maintained between 68-79 degrees F. at 30-70 percent humidity. Mice were fed an 18 percent soy irradiated rodent feed (Envigo) and autoclaved acidified water (pH 2.5-3) were available to all animals ad libitum. The mice were observed daily for clinical signs of disease.
Tumor cell preparation: Cryogenic vials containing tumor cells were thawed and cultured according to the manufacturer's protocol. On the day of inoculation, cells were washed in a serum-free media, counted, and resuspended in cold serum-free media at a concentration of 3 million cells per 100 microliters. […]
Tumor measurement: Mice were monitored weekly for palpable tumors or changes in appearance or behavior. Once tumors were palpable they were measured weekly using calipers. Tumor volume was calculated using the equation: […]
Once tumors were on average between 150-250 mm^3 in volume, tumors and body weights were measured at least twice weekly for the duration of the study. […]

Data set [5] has as its system pancreatic, lung and colon cancer cell lines. In words: Cell viability in pancreatic, lung and colon cancer cell lines. The format is cell-based. As to the method: as §1, §2, §3
Using the same experimental conditions as are described above in Example 1, the efficacy on cell viability was evaluated for PGN6 (SEQ. ID Nos. 7-8), with and without lipofentamine (“lipo”) in three types of cancer cell lines. FIG. 3 (a)-(c) show the effects of PGN6, with and without lipo on cell viability at increasing siRNA levels in pancreatic cancer cell lines. FIG. 4 (a)-(b) similarly show the effects of these variants on cell viability in lung cancer cell lines; FIG. 5 (a)-(b) show the effects of these variants on cell viability in colon cancer cell lines. All data are shown as mean±SD. […]
Using the same experimental conditions as are described above in Example 1, the efficacy of STD1 (SEQ. ID Nos. 1-2), PGN6 (SEQ. ID Nos. 7-8) and PGN7 (SEQ. ID Nos. 9-10) were evaluated in three types of cancer cell lines. […]
Using the same experimental conditions as are described above in Example 1, the efficacy of PGN7 (SEQ. ID No. 9-10) alone and its combination with WEE1 #7 (SEQ. ID No. 13) was evaluated in three types of cancer cell lines. […]
Using the same experimental conditions as are described above in Example 1, the efficacy of PGN7 (SEQ. ID No. 9-10) and the combination of BCLxL #5 (SEQ. ID No. 14) and PGN7 was evaluated in three types of cancer cell lines. […]

For data set [6], the system named is HT1376, HTB-9, N87 and OVCAR-3 cell lines. In words: Cell viability in urinary bladder, gastric and ovarian cancer cell lines. As to conditions: HT1376, HTB-9, N87, OVCAR-3; FIGS. 9-10. The format is cell-based. The method, then:
as §1, §4, §5
Using the same or similar experimental condition as are described above in Example 1, the effects of PGN7 (SEQ. ID No. 9-10), Wee1 (SEQ. ID No. 13), BCLxL #5 (SEQ. ID No. 14) or the PGN7+Wee1, or PGN+BCLxL combinations were evaluated and are shown in HT1376 (400 cells/well) and HTB-9 (800 cells/well) urinary bladder cancer cell lines, N87 (600 cells/well) gastric cancer cell line, and OVCAR-3 (800 cells/well) ovarian cancer line in FIGS. 11 (a)-(d). […]

pIC50: −log10 of the molar value. “Also recorded” adds a separate entry of the source. Read-outs that look alike come from different tables or passages of the source.

On to `Nc1ccn([C@@H]2O[C@H](CO)[C@@H](O)C2(F)F)c(=O)n1` [Gemcitabine, 2′, 2′-difluoro 2′-deoxycytidine], for which the pIC50 was 8.10 in data set [1] (in combination with lipofectamine, 96 h, n=4 (FIG. 2), read-out: IC50, MiaPaCa-2 cell viability) and 8.10 in data set [1] (with lipofectamine (GEM alone for gemcitabine), FIG. 2, read-out: ID50, MiaPaCa cells).

For “BCLxL #5: siRNA sequence used to target BCLxL, SEQ. ID No. 14 (no GEM) (GCGTGGAAAGCGTAGACAAGGAGAT; listed as DNA, chemistry not given here)”, the pIC50 in data set [2] is 9.30; in data set [3] it was 8.57.

In the case of “PGN6: modified siRNA-GEM molecule (SEQ. ID No. 7-8): sense 5′-AAGAAAgAgau [GEM]UGUAU[GEM]AAU-3′; antisense 5′-AuUGAuACAGAUCuCuuucuu[GEM][GEM]dTdT-3′ (sense AAGAAAGAGATCTGTATCAAT; antisense ATTGATACAGATCTCTTTCTTCCTT; GEM modifications; dTdT overhang; modified_base 1 OTHER; 2'-O-methyl modified nucleotide; modified_base 2 OTHER; modified_base 3 OTHER; modified_base 4 OTHER; modified_base 5 OTHER; modified_base 6 OTHER; modified_base 7 OTHER; 2'-fluoro modified nucleotide; modified_b; 2'-O-me)”, in data set [4] (2 mg/kg IV twice weekly for three weeks, with DODAB siRNA in HKP(+H), vs control, n=10, FIG. 12(a)), the “pancreatic tumor volume / tumor growth” value is reported as “attenuate or prevent tumor growth; also recorded: tumors did not grow; also recorded: attenuating the growth of pancreatic tumors”. Besides, the body weight result in data set [4] (2 mg/kg twice weekly, 20 days treatment period, FIG. 12(b)) is on record as “body weight remained constant”. Besides, the “effectiveness with lipofectamine versus without lipofectamine” value is given as “apparently more effective” in data set [5] (lung (FIG. 4) and colon (FIG. 5) cancer cell lines); “more effective” in data set [5] (pancreatic lines MiaPaCa (G12C), BXPC3 (WT), Panc10.05, FIG. 3). The “reduction of cell viability” value in data set [5] (single siRNA against non-silencing control, pancreatic, lung, colon, FIG. 6) is on record as “effective in reducing cell viability”.

Turning to “WEE1 #7: siRNA sequence used to target WEE1, SEQ. ID No. 13 (no GEM) (CGCTCTGTCAGCCTTACTA; listed as DNA, chemistry not given here)”, the “efficacy on cell viability” value in data set [6] is listed as “significant efficacy”.

The record behind these values is patent US20250027086A1, “COMPOSITIONS AND METHODS FOR TREATMENT OF CANCERS USING MODIFIED siRNA-GEM AGENTS” (Sirnaomics, Inc., priority 2022, published 2025).
